From ChEMBL document CHEMBL4406899, “Design, synthesis, and biological evaluation of 2-amino-N-(2-methoxyphenyl)-6-((4-nitrophenyl)sulfonyl)benzamide derivatives as potent HIV-1 Vif inhibitors” (Bioorg Med Chem Lett, 2019)

How the values were obtained:
[1] = Cytotoxicity against human H9 cells assessed as reduction in cell viability incubated for 7 days by MTT assay; type: cell-based
[2] = system: Human immunodeficiency virus 1; assay: Antiviral activity against HIV1 infected in human H9 cells assessed as decrease in p24 antigen production incubated for 7 days by ELISA; type: functional, organism-based; settings: Human immunodeficiency virus 1, H9, 168 h
[3] = Selectivity index, ratio of CC50 for human H9 cells to EC50 for antiviral activity against HIV-1; type: toxicity; settings: read-out: Ratio CC50/EC50

Row | Structure (SMILES) | CC50 at 168 h [1] | EC50 [2] | selectivity ratio [3]
1 | COc1ccccc1NC(=O)c1c(N)cccc1Sc1ccc([N+](=O)[O-])cc1 | 462 µM | 2.12 µM | 263
2 | Nc1cccc(Sc2ccc([N+](=O)[O-])cc2)c1C(=O)Nc1ccccc1O | 153 µM | 9.8 µM | 15.6
3 | COc1ccccc1NC(=O)c1c(N)cccc1Sc1ccncc1 | 569 µM | 176 µM | 3.23
4 | CS(=O)(=O)Oc1ccccc1NC(=O)c1c(N)cccc1Sc1ccc([N+](=O)[O-])cc1 | 422 µM | 79.9 µM | 5.28
5 | COc1ccc(NC(=O)c2c(N)cccc2Sc2ccc([N+](=O)[O-])cc2)c(OC)c1 | 82.5 µM | 20.3 µM | 4.06
6 | COc1ccccc1NC(=O)c1c(N)cccc1Sc1ccc(C(F)(F)F)cc1 | 352 µM | 24.2 µM | 14.6
7 | COc1ccccc1NC(=O)c1c(N)cccc1S(=O)(=O)c1ccc(C(F)(F)F)cc1 | 444 µM | 4.62 µM | 96.5
8 | COc1ncccc1NC(=O)c1c(N)cccc1Sc1ccc([N+](=O)[O-])cc1 | 182 µM | 25.9 µM | 7.03
9 | COc1ncccc1NC(=O)c1c(N)cccc1S(=O)(=O)c1ccc([N+](=O)[O-])cc1 |  | 228 µM | 
10 | Nc1cccc(Sc2ccc([N+](=O)[O-])cc2)c1C(=O)Nc1ccccc1I | 407 µM | 125 µM | 3.26
11 | COc1ccccc1NC(=O)c1c(N)cccc1S(=O)(=O)c1ccc(C(=O)O)cc1 |  | 235 µM | 
12 | COc1ccccc1NC(=O)c1c(N)cccc1Sc1cc(C)cc(C)c1 | 181 µM | 9.6 µM | 18.9
13 | COc1ccccc1NC(=O)c1c(N)cccc1S(=O)(=O)c1ccc(F)cc1 | 499 µM | 12.3 µM | 53.7
14 | COc1ccccc1NC(=O)c1c(N)cccc1S(=O)(=O)c1cc(C)cc(C)c1 |  | 244 µM | 
15 | COc1ccccc1NC(=O)c1c(N)cccc1Sc1ccc(C(=O)O)cc1 |  | 252 µM | 
16 | Nc1ccccc1NC(=O)c1c(N)cccc1Sc1ccc([N+](=O)[O-])cc1 | 427 µM | 15.1 µM | 28.3
17 | COc1ccccc1NC(=O)c1c(N)cccc1Sc1ccc(F)cc1 | 543 µM | 44.8 µM | 15.6
18 | Nc1cccc(S(=O)(=O)c2ccc([N+](=O)[O-])cc2)c1C(=O)Nc1ccccc1I | 382 µM | 30.9 µM | 12.4
